Data set [1] is described as follows: Plasma stability study, rat plasma. The data set is classed as in vitro ADME. The note with it: rat, plasma. As for the experimental part: (§1) Human and rat plasma (K2 EDTA) were obtained from Bioreclamation.
(§2) Compounds were dissolved as 0.3 mM DMSO stocks. Compounds were transferred to the plasma at 1 μM on a 96-well deep well plate. After mixing, samples were transferred to several 96-well plates (25 μL/well), and incubated at 37° C. The extent of metabolism was calculated as the disappearance of the test compound, compared to the 0-min control reaction incubations. Propantheline was included as a positive control to verify assay performance.
(§3) At each of the time points, 150 μL of quench solution (50% acetonitrile, 50% methanol with 0.05% formic acid) with internal standard (bucetin for positive ESI mode and warfarin for negative ESI mode) was transferred to each well. Plates were sealed and centrifuged at 4° C. for 15 minutes at 4000 rpm. The supernatant was transferred to fresh plates for LC/MS/MS analysis.
(§4) Elution conditions are detailed in the table below.
(§5) Initial rates of the clearance of test compounds were calculated using linear regression of semi-log plot of % remaining of compounds versus time. The elimination rate constant (equals to −slope) of the linear regression was then used to determine t½ values.

The test system of a further data set is Caco-2 cells. In words: Caco-2 permeability study with or without P-gp inhibitor GF120918. The note with it: for Abs. Quotient: (Papp A-B with inhibitor − without inhibitor)/Papp A-B with inhibitor; for Caco-2 Cells Permeability Recovery Rate: 1 hr, pH 7.4. Background: Caco-2 cells form a polarised layer with tight junctions and transporters.
Data set [2] can be described thus: Plasma stability study, human plasma. The class given is in vitro ADME. The note with it: human, plasma. Here is the method:
as §1, §2, §3, §4, §5

Data set [3] in a line: Metabolic stability in simulated gastric fluid (SGF), pH 1.2, with or without pepsin. The class given is in vitro ADME. The note with it: simulated gi fluid, pH 1.2. Here is the method:
(§6) Metabolic Stability in SIF and SGF (Simulated Intestinal and Gastric Fluid)
Buffer 1=SGF without enzyme
Buffer 2=SGF with 0.32% pepsin
(§7) SIF was prepared freshly with 8.7 mM NaOH, 28.65 mM NaH2PO4, 105.85 mM NaCl, with a final pH of 6.8. SGF was prepared freshly with 34.2 mM NaCl, with a final pH of 1.2. Enzymes such as pepsin or pancreatin were added to some buffers. Human and rat plasma (K2 EDTA) were purchased from BioreclamationIVT.
(§8) Compounds were dissolved as 1.5 mM DMSO stocks. Compounds were transferred to SIF, SGF, or plasma at 5 μM on a 96-well deep well plate. After mixing, samples were transferred to several 96-well plates (25 μL/well), and incubated at 37° C. The extent of metabolism was calculated as the disappearance of the test compound, compared to the 0-min control reaction incubations. Candesartan Cilexetil and omeprazole were included as positive controls for SIF and SGF, respectively, to verify assay performance.
(§9) At each of the time points, 150 μL of quench solution (100% acetonitrile with 0.1% formic acid) with internal standard (bucetin for positive ESI mode and warfarin for negative ESI mode) was transferred to each well. Plates were sealed and centrifuged at 4° C. for 15 minutes at 4000 rpm. The supernatant was transferred to fresh plates for LC/MS/MS analysis.
as §4, §5

Data set [4] is described as follows: Metabolic stability in simulated intestinal fluid (SIF), pH 6.8, with or without pancreatin. The class given is in vitro ADME. The note with it: simulated gi fluid, pH 6.8. Here is the method: as §6
Buffer 3=SIF without enzyme
Buffer 4=SIF with 1% pancreatin
as §7, §8, §9, §4, §5

Setting [5] is: +GF120918 (10 μM), 10 μM compound.

The text below walks through data of patent publication US12421276B2 (priority 2016, dated 2025).

Where a SMILES comes first, the peptide text is derived from it. [ ]: non-standard residue; d: D form. The star is where a group is joined. Hexanoyl = CCCCCC(=O)*; Ahx = NCCCCCC(=O)O

Method for Caco-2 cells: Buffer=HBSS, pH 7.4 with 5 mM HEPES
Caco-2 cell plates were obtained commercially and were maintained for 21 days at 37° C. with 5% CO2. Cells were washed with Hank's Balanced Salt Solution (HBSS) 30 min before starting the experiment. Test compound solutions were prepared by diluting from DMSO stock into HBSS buffer in the presence or absence of 10 μM of P-gp inhibitor GF120918. The final DMSO concentration is 0.2%. Prior to each experiment, cell monolayer integrity was verified by transendothelial electrical resistance (TEER). Transport experiment was initiated by adding test compounds to the apical (75 μL) side. Transport plates were incubated at 37° C. in a humidified incubator with 5% CO2. Samples were taken from the donor and acceptor compartments after 1 hr and analyzed by liquid chromatography with tandem mass spectrometry (LC/MS/MS).
Apparent permeability (Papp) values were calculated using the following equation: Papp=(dQ/dt)/A/C0
where dQ/dt is the initial rate of amount of test compound transported across cell monolayer, A is the surface area of the filter membrane, and C0 is the initial concentration of the test compound. C0 is calculated for each condition using a 4-point calibration curve.
Absorption quotient between the two assay conditions was calculated by the following equation:
Absorption quotient (AQ)=(Papp, A-B with inhibitor−Papp, A-B without inhibitor)/Papp, A-B with inhibitor where Papp, A-B with inhibitor and Papp, A-B without inhibitor represent the apparent permeability of test compound from the apical to basal side of the cellular monolayer in the presence and absence of 10 μM P-gp inhibitor GF120918, respectively.
All samples were analyzed on LC/MS/MS using an AB Sciex API 4000 instrument, coupled to a Shimadzu LC-20AD LC Pump system. Analytical samples were separated using a Waters Atlantis T3 dC18 reverse phase HPLC column (10 mm×2.1 mm) at a flow rate of 0.5 mL/min. The mobile phase consisted of 0.1% formic acid in water (solvent A) and 0.1% formic acid in acetonitrile (solvent B).

On to `CCCCCC(=O)NC(Cc1ccc(OC(=O)C(N)C(C)C)cc1)C(=O)NC(C(=O)NCCCCCC(N)=O)C(C)CC` (stereo not drawn) [Compound A27] (Hexanoyl-Tyr(Val)-Ile-[Ahx]-NH2; configuration not given here), for which the “Plasma Stability Half-Life” value in data set [1] is recorded as 31.9 min; in data set [2], 13.2 min. Besides, the “Abs. Quotient” value in the data set with Caco-2 cells came to 0.70. Besides, the “Caco-2 Cells Permeability Recovery Rate” value was 94% in the data set on Caco-2 cells (setting [5]) and 90% in the data set with Caco-2 cells (−GF120918, 10 μM compound).

Take `CCCCCC(=O)NC(Cc1ccc(OC(=O)CN(C)C)cc1)C(=O)NC(C(=O)NCCCCCC(N)=O)C(C)CC` (stereo not drawn) [Compound A25]: the figures for the “Plasma Stability Half-Life” value in data set [1] and in data set [2] were 8.2 min and 10.1 min, respectively. In addition, the “Abs. Quotient” value with Caco-2 cells is given as 0.77. Also, the “Caco-2 Cells Permeability Recovery Rate” value was 83% with Caco-2 cells (setting [5]) and 91% with Caco-2 cells (−GF120918, 10 μM compound). The “SGF Stability (pH 1.2) Half-Life (min)” value in data set [3] was 389.4 min. Besides, the “SIF Stability (pH 6.8) Half-Life (min)” value in data set [4] was 34.7 min.

Regarding `CCCCCC(=O)NC(Cc1ccc(OC(=O)CN2CCCC2)cc1)C(=O)NC(C(=O)NCCCCCC(N)=O)C(C)CC` (stereo not drawn) [Compound A24], the “Plasma Stability Half-Life” value was 64.2 min in data set [1] and 7.3 min in data set [2]. For the same compound, the “Abs. Quotient” value with Caco-2 cells stood at 0.88. The “Caco-2 Cells Permeability Recovery Rate” value in the data set with Caco-2 cells (setting [5]) was 72%; in the data set with Caco-2 cells (−GF120918, 10 μM compound), 72%.

As for `CCCCCC(=O)NC(Cc1ccc(OC(=O)CN2CCN(C)CC2)cc1)C(=O)NC(C(=O)NCCCCCC(N)=O)C(C)CC` (stereo not drawn) [Compound A22], the “Plasma Stability Half-Life” value in data set [1] is 8.7 min; in data set [2] it was 87.9 min. Also, the “Abs. Quotient” value with Caco-2 cells came out at 0.78. Moreover, the “Caco-2 Cells Permeability Recovery Rate” value with Caco-2 cells (setting [5]) was 104%; in the data set with Caco-2 cells (−GF120918, 10 μM compound), 107%.

As to `CCCCCC(=O)NC(Cc1ccc(OC(=O)CN2CCOCC2)cc1)C(=O)NC(C(=O)NCCCCCC(N)=O)C(C)CC` (stereo not drawn) [Compound A23], the “Plasma Stability Half-Life” value in data set [1] was found to be 8.2 min; in data set [2], 31.3 min. The “Abs. Quotient” value in the data set on Caco-2 cells is recorded as 0.78. The “Caco-2 Cells Permeability Recovery Rate” value with Caco-2 cells (setting [5]) worked out at 96%; in the data set on Caco-2 cells (−GF120918, 10 μM compound) it was 91%.
